# Results taken from patent publication US20250222082A1, “PROTEIN AND PEPTIDE VACCINES TARGETING METHANOGENS” (Arkea Bio Corp., priority 2024, published 2025).
# Where two headings read alike, the source gives them in different places.
# Columns and labels:
# [1] = tested on: Mbb. ruminantium, Ms. mazei, and Mm. mobile; details: cited from earlier work
# [2] = Adsorbent study: reduction of 3NOP concentration in solution (HPLC 230 nm); details: 0.2 g of adsorbent in 10 mL of 1% 3NOP/H2O; 24 h; control 8.258 mM
# Experimental: (§1) The solution was then placed in an ultrasonic bath for ˜4 hr and then allowed to equilibrate over 24 h.
# methane production = details: cited from earlier work
# [3] = buffer, 24 h
# Experimental: as §1
# [4] = 3NOP volatility (mass loss in open vial); format: physicochemical; details: 500 mg in 5 dram vial open to air, ˜18-24 C, 15-30% RH, 6 days
# Experimental: 3NOP Volatility: 500 mg of 3NOP in a 5 dram vial was left open to air at ˜18-24 C at 15-30% RH over the course of 6 days. Average mass loss is ˜0.25% per day.
# [5] = 3NOP pH and temperature stability (HPLC); format: physicochemical; details: 1-month time period, 4-30 C, pH 4-10
# Excerpt: 3NOP pH and Temperature Stability: Confirmed via HPLC over a 1-month time period at temperature between 4-30 C and pH 4-10.
compound,measurement,setting,value
"O=S(=O)(O)CCCBr [BPS, 3-bromopropanesulfonate]",sensitivity of methanogens in pure cultures,"[1]; up to 250 μmol/L, all three species",resistant
Cyclodextrin,3NOP concentration remaining in solution,[2],7.676 mM
O=[N+]([O-])O [Nitrate],maximum methane suppression amount,methane production; 5 mM,"5 mM; 43.26% Lin rt al., 2017)"
same,maximum methane suppression amount,methane production; 5 mmol/L,5 mmol/L; 32.92%
same,maximum methane suppression amount,methane production; 20 mg/g dry matter,20 mg/g dry matter; 21%
NC(=O)CC[C@H](N)C(=O)O [Glutamine],3NOP concentration remaining in solution,[3]; 20 mg/mL,7.588 mM
N=C(N)NCCC[C@H](N)C(=O)O [Arginine],3NOP concentration remaining in solution,[3]; 50 mg/mL,19.782 mM
"O=c1[nH]c(=O)c2nccnc2[nH]1 [lumazin, 2,4-pteridinedione]","CH4 production by Mbb. ruminantium, Ms. mazei, and Mm. mobile",[1]; dose-dependent from 0.06 to 0.24 mmol/L,significantly decreased
"O=[N+]([O-])OCCCO [Group 3NOP, 3-Nitrooxypropanol]",maximum methane suppression amount,methane production; 60 mg/kg of feed dry matter,"26%/day (Melgar et al., 2020)"
same,3NOP Volatility: average mass loss,[4],~0.25 % per day
same,3NOP pH and Temperature Stability,[5],Confirmed
O=S(=O)([O-])[O-].[Cu+2] [Copper Sulfate],3NOP concentration remaining in solution,[2],7.814 mM
O=C([O-])CC(O)(CC(=O)[O-])C(=O)[O-].[Bi+3] [Bismuth Citrate],3NOP concentration remaining in solution,[2],8.072 mM
O=S(=O)([O-])[O-].O=S(=O)([O-])[O-].O=S(=O)([O-])[O-].[Bi+3].[Bi+3] [Bismuth Sulfate],3NOP concentration remaining in solution,[2],8.079 mM
NCCCC[C@H](N)C(=O)O [Lysine],3NOP concentration remaining in solution,[3]; 50 mg/mL,18.583 mM
